Source: the NIST ThermoML archive (doi:10.1016/j.fluid.2014.04.021)
± gives the expanded uncertainty stated by the source.

Conditions: 101 kPa, Liquid, Vibrating tube method

SMILES: C1CCC2=NCCCN2CC1 [1,8-diaza-7-bicyclo[5.4.0]undecene]
- mass density (293.15 K): 1019.84 ± 0.24 kg/m3
- mass density (298.15 K): 1016.15 ± 0.24 kg/m3
- mass density (303.15 K): 1012.45 ± 0.24 kg/m3
- mass density (308.15 K): 1008.73 ± 0.24 kg/m3
- mass density (313.15 K): 1005 ± 0.23 kg/m3
- mass density (318.15 K): 1001.25 ± 0.23 kg/m3
- mass density (323.15 K): 997.479 ± 0.23 kg/m3
- mass density (328.15 K): 993.692 ± 0.23 kg/m3
- mass density (333.15 K): 989.886 ± 0.23 kg/m3
- mass density (338.15 K): 986.062 ± 0.23 kg/m3
- mass density (343.15 K): 982.224 ± 0.23 kg/m3
- mass density (348.15 K): 978.366 ± 0.23 kg/m3
- mass density (353.15 K): 974.493 ± 0.23 kg/m3
- mass density (358.15 K): 970.601 ± 0.23 kg/m3
